Test results reported in patent US20260284071A1, “CONTROLLING HOMEOSTATIC REGULATORY CIRCUITRY IN HYPOTHALAMUS” (The Johns Hopkins University, priority 2021, published 2026).
Entries after “also recorded” stand apart in the source; their conditions may differ.

Legend:
[1] = cited from earlier work
Shh signaling [2] = details: Nfia/b/x-deficient mice
Description: 10 μg/g Cyclopamine was injected from P8 to P16 on alternative days. 100 μg/g body weight BrdU was injected together from the 3rd injection for 5 consecutive days. Control mice were treated with the corresponding vehicle solution.
All cell counts were performed blindly and manually by five independent observers using Fiji/ImageJ software. […] Initially, cell numbers were normalized by the size (mm) of hypothalamic nuclei measured. […] All values are expressed as mean±S.E.M. Comparisons were analyzed by two-tailed Student's t-test using Microsoft Excel unless stated otherwise. A p-value of <0.05 was considered statistically significant.

Shh signaling [3] = test: Activation of Shh signaling with SAG in juvenile control Rax-CreER;CAG-lsl-Sun1-GFP mice: tanycyte-derived neurogenesis; details: juvenile mice (P10-12), 10 mg/kg i.p.
Description: Vehicle controls were performed in parallel. To quantify levels of tanycyte proliferation and neurogenesis, 50 mg/kg 5-Ethynyl-2′-deoxyuridine (EdU) was delivered via three once-daily i.p. injections beginning on the first day of treatment. Four days after the final treatment at P16, immunohistochemistry was performed on 25 μm hypothalamic brain sections to quantify the levels of tanycyte proliferation and tanycyte-derived neurogenesis. The number of Edu+/GFP+/HuC/D+ tanycyte-derived neurons in the DMN, VMN, ArcN, and ME of the hypothalamus were then quantified.
• 1) Dissolved in 5 mg Sag with 1 ml of 1×PBS. • 2) Dilute stock to 1 ug/1 ul stock in 1×PBS that is 200 ul of 5 mg/ml stock into 800 ul of 1× PBS. • 3) if animal is 10 g then it will get 10 ug per gram so that is 100 ug/100 ul of 1 ug/1 ul stock.

leptin receptor Lepr = test: Leptin injection: pStat3 induction in tanycyte-derived neurons of Nfia/b/x-deficient mice; type: in vivo; details: P90 fasted mice, 3 mg/kg i.p., 45 minutes
Description: At P45, 4.4% of tanycyte-derived neurons in the GABA_2 cluster expressed the leptin receptor Lepr (FIG. 5B), despite Lepr being essentially undetectable in tanycytes themselves, as previously reported (19). As a result, it was tested whether tanycyte-derived neurons were capable of responding to leptin signaling. P90 mice that had undergone an overnight fast were injected i.p. with 3 mg/kg leptin, and sacrificed after 45 minutes, providing sufficient time for leptin-responsive neurons throughout the hypothalamus to induce pStat3 immunoreactivity (35, 36). […] A total of 42.3 (2.5) % of parenchymal tanycyte-derived neurons in DMH and ArcN show pStat3 induction under these conditions, along with 22.3 (±3.9) % of tanycyte-derived neurons in the subventricular region (FIG. 5J), confirming that a subset of tanycyte-derived neurons are leptin-responsive.
After brief washing with 1×PBS to remove the antifreeze solution, sections were mounted on Superfrost Plus slides (Fisher Scientific) before starting the immunohistochemistry and dried at room temperature for 30 min. To ensure adequate fixation for nuclear staining, sections were immersed into the fixative solution for 10 min at this point. Antigen retrieval was performed by incubating the slides with the prewarmed sodium citrate buffer (10 mM sodium citrate, pH 6.0) in an 80° C. water bath for 30 min. […] After finishing the first round of immunostaining, the fluorescence signal was crosslinked by incubation in 2% PFA for 10 min, followed by either EdU staining using the Click-iT EdU detection kit conjugated with Alexa Fluor 647 (ThermoFisher #C10340) or BrdU antibody staining. […]
P45 male mice were exposed to ambient heat (38° C.) for 4 hours (67) by incubating in a prewarmed light-controlled cabinet in the rodent metabolism core facility at the Center for Metabolism and Obesity Research of the Johns Hopkins University School of Medicine. During the procedure, mice were provided ad libitum access to water and food and carefully monitored. […]

[4] = 10 μg/g i.p. every 2 days P8-P16, compared to vehicle controls

O=C1C2CN(Cc3ccc(Cl)cc3)CCN2C(=O)N1OC(=O)N1CCOc2ccccc21 (stereo not drawn) [ABC99, 7-(4-Chlorobenzyl)-1,3-dioxohexahydroimidazo[1,5-a]pyrazin-2(3H)-yl 2,3-dihydro-4Hbenzo[b][1,4]oxazine-4-carboxylate]
blood-brain barrier permeability [1]: blood-brain barrier-permeable; also recorded: efficiently cross the blood-brain barrier

CC1=C2C[C@H]3[C@@H](CC=C4C[C@@H](O)CC[C@@]43C)[C@@H]2CC[C@]12O[C@@H]1C[C@H](C)CN[C@H]1[C@H]2C [Cyclopamine]
blood-brain barrier permeability [1]: blood-brain barrier-permeable
numbers of GFP/NeuN double-positive neurons in VZ and HP (Shh signaling [2]; [4]): significant reduction
numbers of total GFP-positive cells in ventricular zone (VZ) and hypothalamic parenchyma (HP) (Shh signaling [2]; [4]): significant reduction
BrdU incorporation (Shh signaling [2]; BrdU daily P12-P16, compared to vehicle controls): only significantly different in parenchymal neurons
neurogenesis (FIG. 4C) (Shh signaling [2]; i.p.): inhibits neurogenesis

CNC1CCC(N(Cc2cccc(-c3ccncc3)c2)C(=O)c2sc3ccccc3c2Cl)CC1 (stereo not drawn) [SAG]
tanycyte proliferation as cause of the increase (Shh signaling [3]): does not appear to be due to stimulating tanycyte proliferation
number of tanycyte-derived neurons (Shh signaling [3]; 3 daily injections): increase, including significant increases
blood-brain barrier permeability [1]: efficiently cross the blood-brain barrier

B1: leptin: Recombinant Murine Leptin (PeproTech #450-31) (protein, UniProt P41160 22-167, looked up)
Leptin: VPIQKVQDDTKTLIKTIVTRINDISHTQSVSAKQRVTGLDFIPGLHPILSLSKMDQTLAVYQQVLTSLPSQNVLQIANDLENLRDLLHLLAFSKSCSLPQTSGLQKPESLDGVLEASLYSTEVVALSRLQGSLQDILQQLDVSPEC
pStat3 immunoreactivity in GFP-positive tanycyte-derived neurons (leptin receptor Lepr): Robust induction
parenchymal tanycyte-derived neurons in DMH and ArcN showing pStat3 induction (leptin receptor Lepr): 42.3 (2.5) %
tanycyte-derived neurons in the subventricular region showing pStat3 induction (leptin receptor Lepr): 22.3 (±3.9) %
